Data: US20090202430A1, “COMPOSITION FOR CYTOCOMPATIBLE, INJECTABLE, SELF-GELLING POLYSACCHARIDE SOLUTIONS FOR ENCAPSULATING AND DELIVERING LIVE CELLS OR BIOLOGICALLY ACTIVE FACTORS” (BIO SYNTECH CANADA INC., priority 2002, published 2009)

Legend:
encapsulated cells = experiment: MTT assay (live cell metabolism) and Hoechst DNA assay (cell proliferation) of cells in cross-linked chitosan gels (FIG. 4B); type: cell-based; details: MTT and Hoechst DNA assays, after encapsulation
From the text: In FIG. 4B, as shown by MTT assay on day 1 encapsulated cells, hydroxyethyl cellulose offers additional protection to cells immediately post-encapsulation.

cells = experiment: Viability of cells maintained in cross-linker solution (FIG. 4A); type: cell-based; details: cells incubated in 0.3% peroxide for the same time period (up to 72 hours)
Protocol: FIG. 4A illustrates viability of cells maintained in hydroxyethyl cellulose, or glyoxal cross-linker for over an hour;
In FIG. 4A, high viability is maintained after encapsulation in cross-linked chitosan with glyoxal, or hydroxyethyl cellulose-glyoxal. FIG. 4A illustrates that the active hydroxyethyl cellulose-cross linker is cytocompatible. Cells incubated up to 72 hours in active cross-linker remain over 95% viable. Cells incubated in 0.3% peroxide for the same time period are 100% non-viable. After mixing with chitosan and injecting through a syringe with a 26-gauge needle, encapsulated cells in solid gel remain over 95% viable. After mixing with chitosan and pouring into a petri, encapsulated cells in solid gel remain over 95% viable after 1 day of culture.

SMILES | viability and proliferation of cells encapsulated in chitosan gel (encapsulated cells) | non-viable cells (cells)
O=CC=O [glyoxal] | viable after encapsulation and proliferate in the gel | –
OO [peroxide] | – | 100%
